For one compound, IC50 results are on record in paper PMC9461663, “Covalent Inhibition of Pyruvate Kinase M2 Reprograms Metabolic and Inflammatory Pathways in Hepatic Macrophages against Non-alcoholic Fatty Liver Disease” (International Journal of Biological Sciences, 2022).

Broadly, the IC50 is the concentration that inhibits the measured activity by half.

Each structure is given as a SMILES string.

The assay addresses T1, Pyruvate kinase M2 (PKM2) (Mus musculus, UniProt P52480).
T1 construct: gene Pkm; full length recombinant mouse PKM2 (M2 isoform; pET-28a, from pLHCX-Flag-mPKM2)
Briefly: LC-MS/MS peptide mapping of the covalent adduct on recombinant PKM2; competition with biotin probe; pyruvate kinase activity assay (IC50). The class given is biochemical.

T1 sequence (P52480 whole entry, canonical isoform): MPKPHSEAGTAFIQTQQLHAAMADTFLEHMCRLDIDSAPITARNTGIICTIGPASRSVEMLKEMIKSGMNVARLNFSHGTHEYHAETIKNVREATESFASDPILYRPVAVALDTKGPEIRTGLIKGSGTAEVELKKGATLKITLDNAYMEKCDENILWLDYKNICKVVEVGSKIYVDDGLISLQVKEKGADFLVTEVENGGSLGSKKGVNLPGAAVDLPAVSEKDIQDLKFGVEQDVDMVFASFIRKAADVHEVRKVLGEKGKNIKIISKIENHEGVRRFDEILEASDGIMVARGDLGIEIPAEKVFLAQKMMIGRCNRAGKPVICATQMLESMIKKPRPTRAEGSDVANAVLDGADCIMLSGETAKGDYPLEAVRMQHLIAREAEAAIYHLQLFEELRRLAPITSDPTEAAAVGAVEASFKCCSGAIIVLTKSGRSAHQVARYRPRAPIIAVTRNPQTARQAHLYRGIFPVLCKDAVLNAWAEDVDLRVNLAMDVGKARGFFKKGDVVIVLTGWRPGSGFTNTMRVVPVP

On to `CC1=C(O)C(=O)C=C2C1=CC=C1[C@@]2(C)CC[C@@]2(C)[C@@H]3C[C@](C)(C(=O)O)CC[C@]3(C)CC[C@]12C` [celastrol], for which the IC50 was determined as 305 µM.
